According to ChEMBL document CHEMBL5226318, “Emerging Therapeutic Potential of SIRT6 Modulators” (J Med Chem, 2021):

Test: Oral bioavailability in C57BL/6J mouse
Format: ADME, organism-based
Conditions: in vivo

| SMILES | bioavailability [%] |
| --- | --- |
| COC(=O)c1cc(NS(=O)(=O)c2cc(Cl)cc(Cl)c2)ccc1S(=O)(=O)Nc1cc(Br)c(F)cc1C | 71.3 |
| Cc1cc(F)c(Br)cc1NS(=O)(=O)c1ccc(NS(=O)(=O)c2cc(Cl)cc(Cl)c2)cc1CN1CCOC[C@H]1C | 93 |
